Data as given in US20240018122A1, “PYRIDAZINYL AMINO DERIVATIVES AS ALK5 INHIBITORS” (CHIESI FARMACEUTICI S.P.A., priority 2020, published 2024).

Target: human ALK5 (Homo sapiens (Human), UniProt P36897)
Assay: ADP-GLO Kinases assay, inhibitory activity on ALK5
Assay type: biochemical
Conditions: not given

Sequence of human ALK5 (P36897 80-503 limits assumed): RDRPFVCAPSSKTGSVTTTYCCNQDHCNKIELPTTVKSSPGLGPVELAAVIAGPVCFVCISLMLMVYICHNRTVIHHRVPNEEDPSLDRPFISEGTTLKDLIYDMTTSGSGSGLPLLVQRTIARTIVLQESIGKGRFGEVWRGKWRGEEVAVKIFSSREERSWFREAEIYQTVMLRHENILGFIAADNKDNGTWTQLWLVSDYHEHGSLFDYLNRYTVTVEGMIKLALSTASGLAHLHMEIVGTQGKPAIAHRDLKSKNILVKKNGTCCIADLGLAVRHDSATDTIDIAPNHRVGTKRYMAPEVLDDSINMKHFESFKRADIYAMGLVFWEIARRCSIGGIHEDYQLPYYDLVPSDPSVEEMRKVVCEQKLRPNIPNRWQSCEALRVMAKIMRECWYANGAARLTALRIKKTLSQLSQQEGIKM

Row | SMILES | IC50 [nM]
1 | CS(=O)(=O)CCN1CCN(C(=O)Oc2ccc3c(Nc4cnnc(-c5cc(Cl)ccc5F)c4)ccnc3c2)CC1 [Example 53, 4-{[6-(5-Chloro-2-Fluorophenyl)Pyridazin-4-Yl]Amino}Quinolin-7-Yl 4-(2-Methanesulfonylethyl)Piperazine-1-Carboxylate] | 1 to 5
2 | CN1CCN(CCC2CCN(C(=O)Oc3ccc4c(Nc5cnnc(-c6cc(Cl)ccc6F)c5)ccnc4c3)CC2)CC1 [Example 70, 4-{[6-(5-Chloro-2-Fluorophenyl)Pyridazin-4-Yl]Amino}Quinolin-7-Yl 4-[2-(4-Methylpiperazin-1-Yl)Ethyl]Piperidine-1-Carboxylate] | 1 to 5
3 | O=C(Oc1ccc2c(Nc3cnnc(-c4cc(Cl)ccc4F)c3)ccnc2c1)N1CCN(CCO)CC1 [Example 57, 4-{[6-(5-Chloro-2-Fluorophenyl)Pyridazin-4-Yl]Amino}Quinolin-7-Yl 4-(2-Hydroxyethyl)Piperazine-1-Carboxylate] | 1 to 5
4 | CN1CCC(CCN(C)C(=O)Oc2ccc3c(Nc4cnnc(-c5cc(Cl)ccc5F)c4)ccnc3c2)CC1 [Example 51, 4-{[6-(5-Chloro-2-Fluorophenyl)Pyridazin-4-Yl]Amino}Quinolin-7-Yl N-Methyl-N-[2-(1-Methylpiperidin-4-Yl)Ethyl]Carbamate] | 1 to 5
5 | CN1CCC(CN2CCN(C(=O)Oc3ccc4c(Nc5cnnc(-c6cc(Cl)ccc6F)c5)ccnc4c3)CC2)CC1 [Example 100, 4-{[6-(5-Chloro-2-Fluorophenyl)Pyridazin-4-Yl]Amino}Quinolin-7-Yl 4-[(1-Methylpiperidin-4-Yl)Methyl]Piperazine-1-Carboxylatate] | 1 to 5

Same assay, conditions: purified recombinant human ALK5 2.6 nM, TGFβ1 peptide substrate, 25° C, 150 min incubation, ADP-Glo detection; read-out: ALK5 IC50

Row | IC50 [nM] | SMILES
6 | < 1 | O=C(NCCN1CCNCC1)c1ccc2c(Nc3cnnc(-c4cc(Cl)ccc4F)c3)ccnc2c1 [Example 10, 4-{[6-(5-Chloro-2-Fluorophenyl)Pyridazin-4-Yl]Amino}-N-[2-(Piperazin-1-Yl)Ethyl]Quinoline-7-Carboxamide]
7 | 5 to 10 | O=C(OCCN1CCOCC1)c1ccc2nccc(Nc3cnnc(-c4cc(Cl)ccc4F)c3)c2c1 [Example 5, 2-(Morpholin-4-Yl)Ethyl 4-{[6-(5-Chloro-2-Fluorophenyl)Pyridazin-4-Yl]Amino}Quinoline-6-Carboxylate]
8 | < 1 | COC(=O)C1CN(CCC(=O)Nc2cc(Nc3cc(-c4cc(Cl)ccc4F)nnc3C)ccn2)CCN1 (stereo not drawn) [Example 91, Methyl 4-{2-[(4-{[6-(5-Chloro-2-Fluorophenyl)-3-Methylpyridazin-4-Yl]Amino}Pyridin-2-Yl)Carbamoyl]Ethyl}Piperazine-2-Carboxylate]
9 | < 1 | CN1CCC(CCNC(=O)c2ccc3c(Nc4cnnc(-c5cc(Cl)ccc5F)c4)ccnc3c2)CC1 [Example 14, 4-{[6-(5-Chloro-2-Fluorophenyl)Pyridazin-4-Yl]Amino}-N-[2-(1-Methylpiperidin-4-Yl)Ethyl]Quinoline-7-Carboxamide]
10 | < 1 | COc1cc2c(Nc3cnnc(-c4cc(Cl)ccc4F)c3)ccnc2cc1OCCN1CCN(C)CC1 [Example 87, N-[6-(5-Chloro-2-Fluorophenyl)Pyridazin-4-Yl]-6-Methoxy-7-[2-(4-Methylpiperazin-1-Yl)Ethoxy]Quinolin-4-Amine]
11 | < 1 | CS(=O)(=O)N1CCCN(CCC(=O)Nc2cc(Nc3cnnc(-c4cc(Cl)ccc4F)c3)ccn2)C1 [Example 44, N-(4-{[6-(5-Chloro-2-Fluorophenyl)Pyridazin-4-Yl]Amino}Pyridin-2-Yl)-3-(3-Methanesulfonyl-1,3-Diazinan-1-Yl)Propanamide]
12 | < 1 | CN1CCN(CCC(=O)Nc2ccc3c(Nc4cnnc(-c5cc(Cl)ccc5F)c4)ccnc3c2)CC1 [Example 32, N-(4-{[6-(5-Chloro-2-Fluorophenyl)Pyridazin-4-Yl]Amino}Quinolin-7-Yl)-3-(4-Methylpiperazin-1-Yl)Propanamide]
13 | < 1 | COC(=O)CCCc1nnc(-c2cc(Cl)ccc2F)cc1Nc1ccnc(NC(=O)CCN2CCN(C)CC2)c1 [Example 191, Methyl 4-(6-(5-Chloro-2-Fluorophenyl)-4-((2-(3-(4-Methylpiperazin-1-Yl)Propanamido)Pyridin-4-Yl)Amino)Pyridazin-3-Yl)]
14 | < 1 | CN1CCN(CCOc2ccc3c(Nc4cc(-c5cc(Cl)ccc5F)nnc4CO)ccnc3c2)CC1 [Example 177, [6-(5-Chloro-2-Fluorophenyl)-4-({7-[2-(4-Methylpiperazin-1-Yl)Ethoxy]Quinolin-4-Yl}Amino)Pyridazin-3-Yl]Methanol]
15 | < 1 | CS(=O)(=O)CCN1CCN(CCC(=O)Nc2cc(Nc3cc(-c4cc(Cl)ccc4F)nnc3C(F)(F)F)ccn2)CC1 [Example 185]
16 | < 1 | Cc1nnc(-c2cc(Cl)ccc2F)cc1Nc1ccnc2cc(OCCN3CCN(C)CC3)ccc12 [Example 48, N-[6-(5-Chloro-2-Fluorophenyl)-3-Methylpyridazin-4-Yl]-7-[2-(4-Methylpiperazin-1-Yl)Ethoxy]Quinolin-4-Amine]
17 | < 1 | O=C(Nc1cc(Nc2cnnc(-c3cc(Cl)ccc3F)c2)ccn1)C1CC1 [Example 7, N-(4-{[6-(5-Chloro-2-Fluorophenyl)Pyridazin-4-Yl]Amino}Pyridin-2-Yl)Cyclopropanecarboxamide]
18 | 6290 | Fc1ccc(Cl)cc1-c1cc(Nc2nc3cccnc3[nH]2)cnn1 [Example C1, 6-(5-chloro-2-fluorophenyl)-N-{3H-imidazo[4,5-b]pyridin-2-yl}pyridazin-4-amine, reference compound]
19 | < 1 | Cc1nnc(-c2cc(Cl)ccc2F)cc1Nc1ccnc(NC(=O)CCN2CCN(CC(F)(F)F)CC2)c1 [Example 124, N-(4-{[6-(5-Chloro-2-Fluorophenyl)-3-Methylpyridazin-4-Yl]Amino}Pyridin-2-Yl)-3-[4-(2,2,2-Trifluoroethyl)Piperazin-1-Yl]Propanamide]
20 | < 1 | CN1CCCN(CCC(=O)Nc2cc(Nc3cnnc(-c4cc(Cl)ccc4F)c3)ccn2)C1 [Example 33, N-(4-{[6-(5-Chloro-2-Fluorophenyl)Pyridazin-4-Yl]Amino}Pyridin-2-Yl)-3-(3-Methyl-1,3-Diazinan-1-Yl)Propanamide]
21 | < 1 | O=C(CCN1CCN(CCO)CC1)Nc1cc(Nc2cc(-c3cc(Cl)ccc3F)nnc2C(F)(F)F)ccn1 [Example 184, N-(4-{[6-(5-Chloro-2-Fluorophenyl)-3-(Trifluoromethyl)Pyridazin-4-Yl]Amino}Pyridin-2-Yl)-3-[4-(2-Hydroxyethyl)Piperazin-1-Yl]Propenamide]
22 | < 1 | Cc1nnc(-c2cc(Cl)ccc2F)cc1Nc1ccnc(NC(=O)CCCN2CCCN(C)CC2)c1 [Example 161, N-(4-{[6-(5-Chloro-2-Fluorophenyl)-3-Methylpyridazin-4-Yl]Amino}Pyridin-2-Yl)-4-(4-Methyl-1,4-Diazepan-1-Yl)Butanamide]
23 | < 1 | Cc1nnc(-c2cc(Cl)ccc2F)cc1Nc1ccnc(NC(=O)CCN2CCC(F)(F)CC2)c1 [Example 139, N-(4-{[6-(5-Chloro-2-Fluorophenyl)-3-Methylpyridazin-4-Yl]Amino}Pyridin-2-Yl)-3-(4,4-Difluoropiperidin-1-Yl)Propanamide]
24 | < 1 | CN1CCN(CCOc2cc3nccc(Nc4cnnc(-c5cc(Cl)ccc5F)c4)c3cc2O)CC1 [Example 148, 4-{[6-(5-Chloro-2-Fluorophenyl)Pyridazin-4-Yl]Amino}-7-[2-(4-Methylpiperazin-1-Yl)Ethoxy]Quinolin-6-Ol]
25 | < 1 | CN1CCN(CCNC(=O)c2cc3c(Nc4cnnc(-c5cc(Cl)ccc5F)c4)ccnc3[nH]2)CC1 [Example 25, 4-{[6-(5-chloro-2-fluorophenyl)pyridazin-4-yl]amino}-N-[2-(4-methylpiperazin-1-yl)ethyl]-1H-pyrrolo[2,3-b]pyridine-2-carboxamide]
26 | < 1 | CN1CCN(CCC(=O)Nc2cc(Nc3cc(-c4cc(Cl)ccc4F)nnc3CO)ccn2)CC1 [Example 174, N-(4-{[6-(5-chloro-2-fluorophenyl)-3-(hydroxymethyl)pyridazin-4-yl]amino}pyridin-2-yl)-3-(4-methylpiperazin-1-yl)propanamide]
27 | < 1 | CNCCn1cc(C(=O)Nc2cc(Nc3cc(-c4cc(Cl)ccc4F)nnc3C)ccn2)cn1 [Example 155, N-(4-{[6-(5-Chloro-2-Fluorophenyl)-3-Methylpyridazin-4-Yl]Amino}Pyridin-2-Yl)-1-[2-(Methylamino)Ethyl]-1H-Pyrazole-4-Carboxamide]
28 | < 1 | CNCCN1CCN(CC(=O)Nc2cc(Nc3cc(-c4cc(Cl)ccc4F)nnc3C)ccn2)CC1 [Example 106, N-(4-{[6-(5-Chloro-2-Fluorophenyl)-3-Methylpyridazin-4-Yl]Amino}Pyridin-2-Yl)-2-{4-[2-(Methylamino)Ethyl]Piperazin-1-Yl}Acetamide]
29 | < 1 | CN1CCN(CCOc2ccc3c(Nc4cnnc(-c5cc(Cl)ccc5F)c4)ccnc3c2)C1 [Example 90, N-[6-(5-Chloro-2-Fluorophenyl)Pyridazin-4-Yl]-7-[2-(3-Methylimidazolidin-1-Yl)Ethoxy]Quinolin-4-Amine]
30 | < 1 | Cc1nnc(-c2cc(Cl)ccc2F)cc1Nc1ccnc(NC(=O)CN2CC3(CN(C)C3)C2)c1 [Example 143, N-(4-{[6-(5-Chloro-2-Fluorophenyl)-3-Methylpyridazin-4-Yl]Amino}Pyridin-2-Yl)-2-{6-Methyl-2,6-Diazaspiro[3.3]Heptan-2-Yl}Acetamide]

Row | SMILES | IC50 [nM]
31 | CN1CCC2(CC1)CN(C(=O)Oc1ccc3c(Nc4cnnc(-c5cc(Cl)ccc5F)c4)ccnc3c1)C2 [Example 115, 4-{[6-(5-Chloro-2-Fluorophenyl)Pyridazin-4-Yl]Amino}Quinolin-7-Yl 7-Methyl-2,7-Diazaspiro[3.5]Nonane-2-Carboxylate] | < 1
32 | O=C(Oc1ccc2c(Nc3cnnc(-c4cc(Cl)ccc4F)c3)ccnc2c1)N1CC(N2CCCC2)C1 [Example 133, 4-{[6-(5-Chloro-2-Fluorophenyl)Pyridazin-4-Yl]Amino}Quinolin-7-Yl 3-(Pyrrolidin-1-Yl)Azetidine-1-Carboxylate] | < 1
33 | Cc1nnc(-c2cc(Cl)ccc2F)cc1Nc1ccnc2cc(OC(=O)N3CCC(N4CCC4)CC3)ccc12 [Example 153, 4-{[6-(5-Chloro-2-Fluorophenyl)-3-Methylpyridazin-4-Yl]Amino}Quinolin-7-Yl 4-(Azetidin-1-Yl)Piperidine-1-Carboxylate] | < 1
